Where two headings read alike, the source gives them in different places.
Legend:
A375 or UACC-62 cells = experiment: In vitro resistance assay (SRB, 5, 10 and 20 days); type: cell-based, human; conditions: for cell number compared to the control, after 5 days: vemurafenib 5 μM or 10 μM; for cell death on day 10: A375, alone or with 1 μM PAC-1
Experimental: The next day, vemurafenib (5 or 10 μM) or PAC-1 (1 μM) were treated in six technical replicates for 5, 10 and 20 days. Fresh media and compounds were added every 2-3 days for the duration of the study. At the end of 5, 10 or 20 days, the wells were fixed with 10% cold trichloroacetic acid for 1 h at 4° C. The wells were then washed, allowed to dry and stained with 0.5% SRB dye for 30 min at room temperature. The wells were then washed with 0.1% acetic acid and allowed to dry. At this point, images of the plates were taken with GelDoc XR (BioRad). Finally, 200 μL of 10 mM Tris base (pH >10.4) was added into well and the absorbance at 510 nm were read using SpectraMax Plus (Molecular Devices). The absorbance at 510 nm is plotted against the days post treatment as an indication of cell proliferation over the time course of the experiment.

A375VR cells [1] = experiment: Cellular proliferation (SRB) assay in vemurafenib-resistant A375VR; type: cell-based, human; conditions: for IC50: 120 h, 5-day
Experimental: To assess if PAC-1 remains active in a cell line that has acquired resistance to vemurafenib, a vemurafenib-resistant A375VR cell line was generated by growing A375 parental cell line in sequentially higher concentrations of vemurafenib (0.5 μM to 1.0 μM) for 2 months. To determine the mechanism of resistance of A375VR, genes for MEK1/2, NRAS and AKT were sequenced, but no commonly reported mutations that would confer resistance were found (Rizos et al., Clinical Cancer Research 2014; 20:1965-77). Similarly, splice variant of the ^V600EBRAF mRNA was also not observed. Through qPCR, A375VR cells have approximately 3-fold higher levels of MDR1 mRNA compared to A375.
(§1) 1000-2000 cells were seeded per well in a 96-well plate and allowed to adhere before DMSO solutions of PAC-1 or vemurafenib were added to each well. Proliferation was assessed by the sulforhodamine B (SRB) assay.

[2] = tested on: PARP-1 cleavage in A375 cells; experiment: PARP-1 cleavage Western blot in A375; type: cell-based, human; conditions: PAC-1 or PAC-1a 12 μM, vemurafenib 10 μM; up to 24 h
Experimental: (§2) Cells and tumor tissues were lysed using RIPA buffer containing phosphatase and protease inhibitor cocktail (Calbiochem). The protein concentration of each sample was determined by the BCA assay (Pierce). Cell lysates containing 20 μg of protein was loaded into each lane of 4-20% gradient gels (BioRad) for SDS-PAGE. Proteins were transferred onto PDVF membrane for Western blot analysis.

A375 cells = experiment: Cellular proliferation (SRB) assay in A375; type: cell-based, human; conditions: for Emax: A-375, 120 h
Experimental: as §1

A375 and SK-MEL-5 cells = experiment: Long-term (up to 30 days) continuous treatment, cell regrowth; type: cell-based, human; conditions: PAC-1 4 μM or vemurafenib 10 μM
Experimental: We therefore hypothesized that long term treatment with vemurafenib would lead to re-growth of cancer cells, while treatment with PAC-1 should prevent re-growth. To investigate this hypothesis, A375 and SK-MEL-5 cells were plated at low densities and treated continuously with PAC-1 (4 μM) or vemurafenib (10 μM) for up to 30 days. […] However, in wells treated with PAC-1, no regrowth was observed even after 30 days (FIG. 5B). Thus, consistent with the higher Emax value, PAC-1 is able to quantitatively kill cells thereby preventing regrowth.

A375 xenograft tumors = experiment: A375 subcutaneous mouse xenograft model of melanoma
Experimental: In this model, nude mice were inoculated subcutaneously with A375 cells, and after allowing the tumors to grow, mice were randomized based upon tumor volume into four groups [F=0.03<Fcritical(3.01)] and dosed with PAC-1, vemurafenib, or the combination for 15 days.
0.1 mL of A375 or A375VR in 1:1 DMEM:matrigel (Corning) was injected into the right flank of 6-7 (A375) or 5 (A375VR) week old female athymic nude mice (Charles River). In the both models, the mice were randomized into four groups: control, 100 mg/kg PAC-1, 10 mg/kg vemurafenib, and the combination of 100 mg/kg PAC-1 and 10 mg/kg vemurafenib (n=8). Initial tumor volume measurements were taken and dosing was initiated for a period of 15 days. Vemurafenib was formulated as 5% DMSO in 1% methyl cellulose and given twice daily by oral gavage (p.o.). PAC-1 was formulated in 200 mg/mL hydroxypropyl-β-cyclodextrin at pH 5.5 and given by intraperitoneal (i.p.) injection. Tumor length and width measurements were taken three times a week and volume was calculated as 0.52*L*W^2. At the end of the study, the mice were euthanized and tumors were excised. The tumors were weighed and used for Western blot and immunohistochemistry.

[3] = tested on: caspase-3/-7 activity in A375 cells; conditions: PAC-1 12 μM, vemurafenib 10 μM; combination increase as early as 7 h post-treatment
Experimental: (§3) 5,000-8,000 cells were plated in 96 well plates and allowed to adhere. […] Plates were then assessed for caspase-3/7 activity via addition of bifunctional lysis and activity buffer (200 mM HEPES, 400 mM NaCl, 40 mM DTT, 0.4 mM EDTA, 1% Triton-X, pH 7.4) with 20 μM of Ac-DEVD-AFC (SEQ ID NO: 20) (Cayman Chemicals) as the fluorogenic substrate (λex=400 nm, λem=505 nm). Plates were pre-incubated at 37° C. at 30 min in the Synergy multi-mode reader (BioTek) then read for 30 min at 3 min intervals. The slopes for each well were calculated. Activity is expresses as normalized to minimal and maximal activity observed within the assay.

[4] = tested on: PARP-1 cleavage in SK-MEL-5 cells; experiment: PARP-1 cleavage Western blot in SK-MEL-5; type: cell-based, human; conditions: PAC-1 12 μM, vemurafenib 10 μM
Experimental: as §2

[5] = tested on: caspase-3/-7 activity in UACC-62 cells; conditions: PAC-1 12 μM, vemurafenib 10 μM
Experimental: as §3

[6] = tested on: PARP-1 cleavage in UACC-62 cells; experiment: PARP-1 cleavage Western blot in UACC-62; type: cell-based, human; conditions: PAC-1 12 μM, vemurafenib 10 μM
Experimental: as §2

[7] = tested on: caspase-3/-7 activity in A375 and UACC-62 cells; conditions: 24 h; PAC-1 12 μM, vemurafenib 10 μM, trametinib 100 nM
Experimental: (A) Shown is percent apoptotic cell death after 24 h of treatment. […] Activity is expressed as normalized to the positive control. Dashed horizontal lines represent the level of cell death expected from a mere additive effect of the two agents. Values are reported as mean±SEM of at least three experiments.
5,000-8,000 cells were plated in 96 well plates and allowed to adhere. Cells were treated with 1 μM of staurosporine for 24 h or with 13 μM of raptinal (Palchaudhuri et al., Cell Rep 2015; 13:2027-36) for 3 h as positive control, DMSO as negative control and indicated concentrations of PAC-1 and vemurafenib for 0, 2, 4, 7, 10, 12, 16, 20 or 24 h. Plates were then assessed for caspase-3/7 activity via addition of bifunctional lysis and activity buffer (200 mM HEPES, 400 mM NaCl, 40 mM DTT, 0.4 mM EDTA, 1% Triton-X, pH 7.4) with 20 μM of Ac-DEVD-AFC (SEQ ID NO: 20) (Cayman Chemicals) as the fluorogenic substrate (λex=400 nm, λem=505 nm). Plates were pre-incubated at 37° C. at 30 min in the Synergy multi-mode reader (BioTek) then read for 30 min at 3 min intervals. The slopes for each well were calculated. Activity is expresses as normalized to minimal and maximal activity observed within the assay.

[8] = tested on: panel of nine cell lines of diverse origins and BRAF mutational status; experiment: Cellular proliferation (SRB) assay, 5-day IC50, panel of nine cell lines; type: cell-based; conditions: 120 h, read-out: IC50 values (5 day)
Experimental: as §1

A375VR xenograft tumors = conditions: nude mice, 15 days; vemurafenib 10 mg/kg, PAC-1 100 mg/kg
Experimental: All animal studies were performed in accordance with UIUC IACUC guidelines (protocol no. 14292). 0.1 mL of A375 or A375VR in 1:1 DMEM:matrigel (Corning) was injected into the right flank of 6-7 (A375) or 5 (A375VR) week old female athymic nude mice (Charles River). In the both models, the mice were randomized into four groups: control, 100 mg/kg PAC-1, 10 mg/kg vemurafenib, and the combination of 100 mg/kg PAC-1 and 10 mg/kg vemurafenib (n=8). Initial tumor volume measurements were taken and dosing was initiated for a period of 15 days. Vemurafenib was formulated as 5% DMSO in 1% methyl cellulose and given twice daily by oral gavage (p.o.). PAC-1 was formulated in 200 mg/mL hydroxypropyl-β-cyclodextrin at pH 5.5 and given by intraperitoneal (i.p.) injection. Tumor length and width measurements were taken three times a week and volume was calculated as 0.52*L*W^2. At the end of the study, the mice were euthanized and tumors were excised. The tumors were weighed and used for Western blot and immunohistochemistry.

[9] = tested on: caspase-3/-7 activity in SK-MEL-5 cells; conditions: PAC-1 12 μM, vemurafenib 10 μM
Experimental: as §3

A375VR cells [10] = experiment: Annexin V/PI apoptosis in A375VR; type: cell-based, human; conditions: 24 h; in combination with low concentrations of vemurafenib
Experimental: FIGS. 13A-C. Effect of the PAC-1 and vemurafenib combination in A375VR cells. (A) Shown is percent apoptotic cell death (assessed by Annexin V/PI staining and flow cytometry) induced after 24 h of treatment. (B) The apoptotic cell death observed in (A) is greater than that predicted by the Bliss independent model. The excess cell death is calculated as [f(observed, apoptotic)−(f(PAC-1, apoptotic)+f(vemurafenib, apoptotic)−f(PAC-1, apoptotic)*f(vemurafenib, apoptotic))]*100%. […] (C) The synergistic effect of PAC-1 and vemurafenib in activating apoptosis in A375VR after 24 h.

[11] = tested on: ERK1/2 phosphorylation in A375VR cells; experiment: ERK1/2 phosphorylation Western blot in A375VR; type: cell-based, human; conditions: 2 h; vemurafenib 0.5 or 1 μM
Experimental: as §2

[12] = tested on: ERK1/2 phosphorylation in UACC-62 cells; experiment: ERK1/2 phosphorylation Western blot in UACC-62; type: cell-based, human; conditions: 24 h; vemurafenib 0.5 μM and 1 μM
Experimental: as §2

[13] = tested on: melanoma patients with the V600E BRAF protein; conditions: literature; cited from earlier work
[14] = tested on: ERK1/2 phosphorylation in A375 cells; experiment: ERK1/2 phosphorylation Western blot in A375; type: cell-based, human
Experimental: as §2

[15] = tested on: ERK1/2 phosphorylation in SK-MEL-5 cells; experiment: ERK1/2 phosphorylation Western blot in SK-MEL-5; type: cell-based, human; conditions: 24 h; vemurafenib 0.5 μM and 1 μM
Experimental: as §2

[16] = tested on: ERK1/2 phosphorylation in WTBRAF cell lines; experiment: ERK1/2 phosphorylation Western blot in WTBRAF cell lines; type: cell-based; conditions: 24 h; even at high concentrations (30 μM)
Experimental: as §2

SMILES: C=CCc1cccc(/C=N/NC(=O)CN2CCN(Cc3ccccc3)CC2)c1O [PAC-1, 2-(4-benzylpiperazin-1-yl)-N-[(2-hydroxy-3-prop-2-enyl-phenyl)methylideneamino]acetamide]
- cell number compared to the control, after 5 days (A375 or UACC-62 cells; A375 and UACC-62, PAC-1 1 μM): significant reduction in cell number
- difference from the control on day 10 (A375 or UACC-62 cells; PAC-1 1 μM): no observable difference
- IC50 (A375VR cells [1]; Homo sapiens, A375VR): 2.4 µM
- PARP-1 cleavage [2]: little effect
- Emax (percent cell death induced by high concentrations of compound) (A375 cells; A375 cells, after 5 days): ~100%
- Emax (A375 cells; Homo sapiens, read-out: Emax (percent cell death induced by high concentrations of compound), A375 cells, after 5 days): 99.4 ± 0.7%
- IC50 (A375 cells; Homo sapiens, A-375, read-out: IC50 value): 1.2 µM
- time of continuous treatment to regrowth of cells (A375 and SK-MEL-5 cells): > 30 days
- reduction in tumor mass and volume compared to untreated control (A375 xenograft tumors; PAC-1 100 mg/kg once daily i.p., 15 days): minimal reduction
- caspase-3 activity [3]: negligible increases
- PARP-1 cleavage [4]: little effect
- caspase-3/-7 enzymatic activity [5]: little effect
- PARP-1 cleavage [6]: little effect
- caspase-3/-7 activity [7]: little effect
- IC50 [8]: 1 to 4 µM
- antitumor effect (tumor volume compared to untreated control) (A375VR xenograft tumors): does not exert any antitumor affect
- caspase-3/-7 enzymatic activity [9]: little effect

SMILES: O=C(CN1CCN(Cc2ccccc2)CC1)N/N=C/c1ccccc1 [PAC-1a]
- proportion of cells undergoing apoptosis (A375VR cells [10]): abolished

SMILES: CCCS(=O)(=O)Nc1ccc(F)c(C(=O)c2c[nH]c3ncc(-c4ccc(Cl)cc4)cc23)c1F [vemurafenib]
- complete inhibition of ERK1/2 phosphorylation [11]: not observed
- phosphorylation of ERK1/2 [12]: inhibited the phosphorylation of ERK1/2
- cell death on day 10 (A375 or UACC-62 cells; vemurafenib 5 μM): 89.4±1.4%
- cell death on day 10 (A375 or UACC-62 cells; vemurafenib 10 μM): 93.2±1.1%
- cell number compared to the control, after 5 days (A375 or UACC-62 cells; A375 and UACC-62, PAC-1 1 μM): significant reduction in cell number
- regrowth of colonies after 20 days of treatment (A375 or UACC-62 cells; A375 and UACC-62, vemurafenib 5 or 10 μM, PAC-1 1 μM): significant regrowth of colonies
- loss of potency compared to parental A375 (A375VR cells [1]; 5-day IC50, A375VR vs A375): 12 fold
- Emax lower than the parental A375 cell line (A375VR cells [1]; A375VR vs A375): 14%
- IC50 (A375VR cells [1]; Homo sapiens, A375VR): 1.5 µM
- Emax (A375VR cells [1]; Homo sapiens, A375VR): 79 ± 6.3%
- PARP-1 cleavage [2]: little effect
- Emax (percent cell death induced by high concentrations of compound) (A375 cells; A375 cells, after 5 days): ~97%
- Emax (A375 cells; Homo sapiens, A375 cells, after 5 days, read-out: Emax (percent cell death induced by high concentrations of compound)): 96.8 ± 0.3%
- A375 cells insensitive to compound (A375 cells; after 5 days, from Emax): ~3%
- extension of progression-free survival [13]: 5.3 months
- time of continuous treatment to regrowth of cells (A375 and SK-MEL-5 cells): ≥ 20 days
- reduction in tumor volume compared to control (A375 xenograft tumors; nude mice, dosed 15 days, PAC-1 100 mg/kg once daily i.p., vemurafenib 10 mg/kg twice daily p.o.): 53%
- mice having comparable tumor mass as the control mice (A375 xenograft tumors; vemurafenib 10 mg/kg twice daily p.o., 15 days): 3 out of 8
- caspase-3 activity [3]: negligible increases
- PARP-1 cleavage [4]: little effect
- inhibition of ERK1/2 phosphorylation ([14]; 2 h, vemurafenib 0.5 or 1 μM, parental A375): complete inhibition
- phospho-ERK1/2 bands ([14]; 24 h, vemurafenib 0.5 and 1.0 μM): not observed
- caspase-3/-7 enzymatic activity [5]: little effect
- PARP-1 cleavage [6]: little effect
- phosphorylation of ERK1/2 [15]: inhibited the phosphorylation of ERK1/2
- caspase-3/-7 activity [7]: little effect
- IC50 [8]: 0.2 to 0.55 µM
- antitumor effect (tumor volume compared to untreated control) (A375VR xenograft tumors): does not exert any antitumor affect
- caspase-3/-7 enzymatic activity [9]: little effect
- inhibition of ERK1/2 phosphorylation [16]: not observed

Reference: patent publication US11129830B2, “PAC-1 combination therapy” (The Board of Trustees of the University of Illinois, priority 2015, dated 2021)
